The term IC50 denotes the point on the concentration scale where inhibition reaches its midpoint. The AUC is the area under the concentration-time curve, a measure of exposure.

The values below come from ChEMBL document CHEMBL1158447, “Substituted benzimidazoles: A novel chemotype for small molecule hKSP inhibitors” (Bioorg Med Chem Lett, 2009).

Structures are written as SMILES. The source made the active and inactive calls. The calls are words filed in the database; no cut-off is given here.

In data set [1] the target is T1, Kinesin-like protein KIF11 (Homo sapiens, UniProt P52732).
T1 sequence (P52732 whole entry): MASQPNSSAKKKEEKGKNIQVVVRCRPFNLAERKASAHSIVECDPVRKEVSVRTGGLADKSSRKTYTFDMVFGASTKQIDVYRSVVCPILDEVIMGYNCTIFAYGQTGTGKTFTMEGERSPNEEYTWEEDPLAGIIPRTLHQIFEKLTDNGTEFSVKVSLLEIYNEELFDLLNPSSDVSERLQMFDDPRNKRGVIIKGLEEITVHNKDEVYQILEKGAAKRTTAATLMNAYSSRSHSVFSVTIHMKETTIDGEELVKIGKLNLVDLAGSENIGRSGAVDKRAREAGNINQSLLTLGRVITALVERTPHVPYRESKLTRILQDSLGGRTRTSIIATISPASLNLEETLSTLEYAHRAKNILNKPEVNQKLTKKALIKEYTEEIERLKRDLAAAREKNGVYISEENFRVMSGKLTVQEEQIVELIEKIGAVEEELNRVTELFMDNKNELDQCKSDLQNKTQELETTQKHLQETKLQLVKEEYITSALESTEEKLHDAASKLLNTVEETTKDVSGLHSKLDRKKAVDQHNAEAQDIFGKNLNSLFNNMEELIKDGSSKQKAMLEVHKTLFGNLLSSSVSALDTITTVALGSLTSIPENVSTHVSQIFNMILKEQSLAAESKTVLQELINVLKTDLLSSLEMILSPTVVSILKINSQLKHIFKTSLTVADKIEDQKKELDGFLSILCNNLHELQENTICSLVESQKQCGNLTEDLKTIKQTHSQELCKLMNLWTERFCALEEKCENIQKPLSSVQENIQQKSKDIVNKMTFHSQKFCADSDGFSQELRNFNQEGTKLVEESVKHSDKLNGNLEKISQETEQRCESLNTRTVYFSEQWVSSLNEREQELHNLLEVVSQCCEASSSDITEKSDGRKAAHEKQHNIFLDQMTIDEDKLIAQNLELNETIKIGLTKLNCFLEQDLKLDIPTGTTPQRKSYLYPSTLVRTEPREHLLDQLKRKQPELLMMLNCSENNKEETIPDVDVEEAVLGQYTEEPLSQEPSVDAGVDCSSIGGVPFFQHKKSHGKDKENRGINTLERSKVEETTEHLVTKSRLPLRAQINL
In words: Inhibition of human kinesin spindle protein by endpoint assay.

The target of data set [2] is T2, Kinesin-like protein KIF3B (Homo sapiens, UniProt O15066).
T2 sequence (O15066 whole entry): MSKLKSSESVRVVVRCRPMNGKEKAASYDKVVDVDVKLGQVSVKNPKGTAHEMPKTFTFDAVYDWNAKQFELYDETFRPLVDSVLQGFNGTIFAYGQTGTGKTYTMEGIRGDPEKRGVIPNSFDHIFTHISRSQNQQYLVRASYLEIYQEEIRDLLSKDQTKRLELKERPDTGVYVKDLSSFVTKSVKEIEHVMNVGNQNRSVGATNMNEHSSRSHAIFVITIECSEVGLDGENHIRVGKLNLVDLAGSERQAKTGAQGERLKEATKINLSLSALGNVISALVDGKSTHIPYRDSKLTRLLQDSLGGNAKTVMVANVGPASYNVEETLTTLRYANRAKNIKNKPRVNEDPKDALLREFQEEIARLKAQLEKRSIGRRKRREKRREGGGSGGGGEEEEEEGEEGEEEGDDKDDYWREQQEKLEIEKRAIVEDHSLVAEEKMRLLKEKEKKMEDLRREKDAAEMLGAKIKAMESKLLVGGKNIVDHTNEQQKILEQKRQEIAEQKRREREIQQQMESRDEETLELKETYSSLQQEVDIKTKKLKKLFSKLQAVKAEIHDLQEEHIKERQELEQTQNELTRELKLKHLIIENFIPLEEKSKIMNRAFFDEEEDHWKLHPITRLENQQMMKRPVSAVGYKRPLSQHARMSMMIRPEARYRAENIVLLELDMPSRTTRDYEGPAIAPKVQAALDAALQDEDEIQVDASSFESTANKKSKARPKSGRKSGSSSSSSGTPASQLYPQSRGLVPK
In words: Inhibition of Kif3B.

Data set [3] addresses T3, Kinesin heavy chain isoform 5A (Homo sapiens, UniProt Q12840).
T3 sequence (Q12840 whole entry): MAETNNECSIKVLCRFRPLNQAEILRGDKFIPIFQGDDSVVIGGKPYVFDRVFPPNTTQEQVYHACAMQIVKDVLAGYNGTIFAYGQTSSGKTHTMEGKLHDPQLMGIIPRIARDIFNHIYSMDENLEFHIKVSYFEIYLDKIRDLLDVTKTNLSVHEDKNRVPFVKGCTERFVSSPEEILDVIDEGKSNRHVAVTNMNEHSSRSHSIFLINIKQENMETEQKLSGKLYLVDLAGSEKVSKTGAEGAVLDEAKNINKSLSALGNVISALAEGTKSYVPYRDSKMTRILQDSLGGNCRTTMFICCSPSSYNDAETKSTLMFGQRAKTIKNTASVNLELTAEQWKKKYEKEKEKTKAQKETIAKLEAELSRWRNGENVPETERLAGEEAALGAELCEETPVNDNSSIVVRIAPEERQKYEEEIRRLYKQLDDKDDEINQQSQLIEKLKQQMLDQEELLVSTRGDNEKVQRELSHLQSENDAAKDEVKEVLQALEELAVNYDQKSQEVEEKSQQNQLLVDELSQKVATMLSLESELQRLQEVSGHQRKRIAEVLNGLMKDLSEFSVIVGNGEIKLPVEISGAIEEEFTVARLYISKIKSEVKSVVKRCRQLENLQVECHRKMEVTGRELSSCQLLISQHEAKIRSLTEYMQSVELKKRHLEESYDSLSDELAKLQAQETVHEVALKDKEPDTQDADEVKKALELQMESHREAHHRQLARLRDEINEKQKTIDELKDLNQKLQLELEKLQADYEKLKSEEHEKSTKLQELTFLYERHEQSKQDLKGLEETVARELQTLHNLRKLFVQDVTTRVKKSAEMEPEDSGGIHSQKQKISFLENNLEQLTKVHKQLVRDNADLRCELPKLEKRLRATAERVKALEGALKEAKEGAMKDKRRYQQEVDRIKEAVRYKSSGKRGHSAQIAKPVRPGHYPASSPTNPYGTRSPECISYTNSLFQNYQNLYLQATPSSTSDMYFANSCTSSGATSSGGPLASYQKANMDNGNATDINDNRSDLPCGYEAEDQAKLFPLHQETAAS
In words: Inhibition of nKHC.

Data set [4] deals with Kinesin-like protein KIF11 (Homo sapiens) (UniProt P52732). In words: Selectivity for human KSP over HSET.
The target of data set [5] is T4, Cytochrome P450 3A4 (Homo sapiens, UniProt P08684). In words: Inhibition of CYP3A4 coincubated with compound. Type of data set: ADME.
T4 sequence (P08684 whole entry): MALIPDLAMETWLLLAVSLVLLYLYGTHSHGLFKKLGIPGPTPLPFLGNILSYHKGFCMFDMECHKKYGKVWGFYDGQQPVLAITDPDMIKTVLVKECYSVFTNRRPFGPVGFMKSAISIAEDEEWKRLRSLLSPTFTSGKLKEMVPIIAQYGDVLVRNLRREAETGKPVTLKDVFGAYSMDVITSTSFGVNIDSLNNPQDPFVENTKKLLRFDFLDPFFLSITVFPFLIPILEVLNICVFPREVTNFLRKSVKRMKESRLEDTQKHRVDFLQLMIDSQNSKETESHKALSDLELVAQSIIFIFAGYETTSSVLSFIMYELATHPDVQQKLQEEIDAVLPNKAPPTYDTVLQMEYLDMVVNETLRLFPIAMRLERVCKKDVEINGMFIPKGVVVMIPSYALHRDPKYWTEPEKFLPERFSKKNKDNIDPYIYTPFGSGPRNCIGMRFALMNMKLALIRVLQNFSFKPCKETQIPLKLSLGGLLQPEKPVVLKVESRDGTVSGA
Data set [6] addresses T5, Cytochrome P450 2D6 (Homo sapiens, UniProt P10635). In words: Inhibition of CYP2D6 coincubated with compound. It counts as ADME.
Data set [7] deals with T6, Cytochrome P450 2C9 (Homo sapiens, UniProt P11712). In words: Inhibition of CYP2C9 coincubated with compound. It counts as ADME.
T6 sequence (P11712 whole entry): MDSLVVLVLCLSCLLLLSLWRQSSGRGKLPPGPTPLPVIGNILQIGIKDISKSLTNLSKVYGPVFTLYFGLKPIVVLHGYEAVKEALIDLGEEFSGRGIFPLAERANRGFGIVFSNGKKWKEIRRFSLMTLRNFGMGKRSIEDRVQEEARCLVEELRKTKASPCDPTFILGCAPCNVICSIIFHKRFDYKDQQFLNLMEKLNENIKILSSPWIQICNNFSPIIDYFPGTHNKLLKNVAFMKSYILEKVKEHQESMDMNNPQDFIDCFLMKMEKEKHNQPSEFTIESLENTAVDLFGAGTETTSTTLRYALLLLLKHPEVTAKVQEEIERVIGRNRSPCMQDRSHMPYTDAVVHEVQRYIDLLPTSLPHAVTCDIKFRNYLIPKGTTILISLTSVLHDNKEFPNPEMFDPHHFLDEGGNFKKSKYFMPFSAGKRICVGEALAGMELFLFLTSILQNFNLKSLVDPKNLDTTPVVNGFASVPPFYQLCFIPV
Data set [8] is described as follows: Permeability across human Caco-2 cell membrane. It counts as ADME, cell-based. Conditions: read-out: permeability. Background: Passage across Caco-2 layers is used to estimate intestinal permeability.
Data set [9] relates to Rattus norvegicus. In words: AUC in rat at 10 mg/kg after 6 hrs. It counts as ADME, organism-based, Plasma. Also noted: time < 6 hr, dose 10 mg/kg. Conditions: in vivo.
In data set [10] the target is T4, Cytochrome P450 3A4. In words: Inhibition of CYP3A4 preincubated with compound. It counts as ADME.
Data set [11] deals with T5, Cytochrome P450 2D6. In words: Inhibition of CYP2D6 preincubated with compound. Type of data set: ADME.
In data set [12] the target is T6, Cytochrome P450 2C9. In words: Inhibition of CYP2C9 preincubated with compound. It counts as ADME.
Data set [13] deals with A2780. In words: Antiproliferative activity against human A2780 cells after 48 hrs by Almar blue assay. Type of data set: functional, cell-based. Conditions: A2780, 48 h.
Data set [14] deals with A2780. In words: Antiproliferative activity against human A2780 cells assessed s occurrence of monostral phenotype at 25 uM after 48 hrs by Almar blue assay. Type of data set: functional, cell-based.

T5 sequence (P10635 whole entry): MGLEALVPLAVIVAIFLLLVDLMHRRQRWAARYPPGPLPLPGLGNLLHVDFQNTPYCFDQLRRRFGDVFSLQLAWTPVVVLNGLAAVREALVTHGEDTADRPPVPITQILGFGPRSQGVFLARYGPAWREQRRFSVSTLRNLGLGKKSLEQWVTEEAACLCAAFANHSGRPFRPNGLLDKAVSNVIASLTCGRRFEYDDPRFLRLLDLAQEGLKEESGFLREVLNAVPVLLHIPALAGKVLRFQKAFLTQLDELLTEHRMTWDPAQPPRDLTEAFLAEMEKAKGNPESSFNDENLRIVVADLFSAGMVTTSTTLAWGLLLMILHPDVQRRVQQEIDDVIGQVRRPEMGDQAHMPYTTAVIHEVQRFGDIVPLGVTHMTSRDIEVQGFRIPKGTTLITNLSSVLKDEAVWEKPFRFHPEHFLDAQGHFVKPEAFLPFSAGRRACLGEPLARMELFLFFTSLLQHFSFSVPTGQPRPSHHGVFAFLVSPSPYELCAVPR

`NC(=O)c1ccc2c(c1)nc(Nc1ccc(S(N)(=O)=O)cc1)n2Cc1csc2ccccc12`: the IC50 in data set [1] is 2.1 µM; in [2], above 50 µM; in data set [3], above 50 µM. Also, the fold change (FC) in [4] is above 24.
In the case of `COc1ccc(Nc2nc3cc(C(N)=O)ccc3n2Cc2ccccc2C(F)(F)F)cc1F`, the IC50 is 1.3 µM in data set [1], above 50 µM in data set [2] and above 50 µM in data set [3]. The fold change (FC) in [4] was 11.
Regarding `CS(=O)(=O)c1ccc(Nc2nc3cc(C(=O)O)ccc3n2Cc2ccccc2C(F)(F)F)cc1`, the IC50 in [1] was 6.9 µM; in data set [2], above 50 µM; in data set [3] it was above 50 µM. For the same compound, the fold change (FC) in data set [4] was determined as 7.
For the compound `NC(=O)c1ccc2c(c1)nc(Nc1ccc(S(N)(=O)=O)cc1)n2Cc1ccccc1C(F)(F)F`, the results for the IC50 in data set [1], in data set [2] and in data set [3] were 7.4 µM, above 50 µM and above 50 µM, respectively. Moreover, the fold change (FC) in data set [4] stood at 5.
Take `CSc1ccc(Nc2nc3cc(C(N)=O)ccc3n2Cc2ccccc2C(F)(F)F)cc1`: the IC50 was 0.52 µM in data set [1]; above 30 µM in [5]; above 30 µM in data set [6]; 14 µM in data set [7]; above 50 µM in [2]; above 50 µM in data set [3]. The IC50 is below 15 µM in data set [10], above 15 µM in data set [11], above 7 µM in data set [12] and 16 µM in [13]. In addition, the Papp in data set [8] came to 53 ×10⁻⁶ cm/s. The AUC in data set [9] was determined as 0.15 µM·h. Besides, the outcome in data set [14] was Active. In addition, the fold change (FC) in [4] worked out at 8.
As to `COc1ccc(Nc2nc3cc(C(N)=O)ccc3n2Cc2ccccc2C(F)(F)F)cc1`, the IC50 in data set [1] was 2.5 µM; in data set [5], above 30 µM; in data set [6] it was above 30 µM; in data set [7] it was 8 µM; in data set [2], above 50 µM; in [3], above 50 µM. Moreover, the IC50 in data set [10] was above 15 µM; in [11], above 15 µM; in data set [12] it was above 4 µM; in data set [13], 19 µM. Further, the Papp in [8] amounted to 67 ×10⁻⁶ cm/s. In data set [9], this compound yielded an AUC of 0.6 µM·h. Moreover, in [14], the result was Active.
As to `CS(=O)(=O)c1ccc(Nc2nc3cc(C(N)=O)ccc3n2Cc2ccccc2C(F)(F)F)cc1`, the IC50 was 4.8 µM in data set [1]; above 30 µM in data set [5]; above 30 µM in data set [6]; 15 µM in [7]; above 50 µM in data set [2]; above 50 µM in data set [3]. For the same compound, the IC50 was above 20 µM in [10], above 15 µM in [11] and above 8 µM in [12]. Moreover, in data set [8], the Papp came to 1.8 ×10⁻⁶ cm/s. The AUC in [9] was found to be 0 µM·h.
